Results taken from article PMC9719525, “Design of MMP-1 inhibitors via SAR transfer and experimental validation” (Scientific Reports, 2022).

How the values were obtained:
[1] = target: T1, matrix metalloproteinase 1 (MMP-1) (Homo sapiens, UniProt P03956); assay: colorimetric MMP-1 enzyme assay; compound previously reported (ref […]), resynthesized here; format: biochemical; details: cited from earlier work
T1 construct: gene MMP1
T1 sequence (P03956 100-469): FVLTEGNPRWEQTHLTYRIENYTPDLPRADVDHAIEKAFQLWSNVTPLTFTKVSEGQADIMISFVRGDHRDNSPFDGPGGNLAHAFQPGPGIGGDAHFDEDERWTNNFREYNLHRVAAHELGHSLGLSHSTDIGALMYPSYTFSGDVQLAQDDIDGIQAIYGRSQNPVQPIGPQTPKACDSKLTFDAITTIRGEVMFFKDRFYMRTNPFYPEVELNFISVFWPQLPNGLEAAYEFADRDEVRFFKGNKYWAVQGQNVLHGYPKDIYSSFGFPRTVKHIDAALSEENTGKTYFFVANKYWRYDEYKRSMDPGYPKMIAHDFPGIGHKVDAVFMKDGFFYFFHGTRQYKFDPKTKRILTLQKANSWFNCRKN

[2] = target: T1, matrix metalloproteinase 1 (MMP-1); assay: colorimetric MMP-1 enzyme assay (ENZ BML-AK404-0001 kit, A412nm); format: biochemical

Structure (SMILES)	IC50 ([2]; read-out: IC50 (μM)^a) [µM]	other results
C[C@H](C(=O)NO)N1CC[C@@](C)(c2ccc(C(F)(F)F)cc2)C1=O [compound 4]		IC50 [1]: 0.12 ± 0.01 µM
COc1ccc([C@]2(C)CCN([C@H](C)C(=O)NO)C2=O)cc1 [compound 5, (R)-N-hydroxy-2-((S)-3-(4-methoxyphenyl)-3-methyl-2-oxopyrrolidin-1-yl)propenamide]		IC50 [2]: 0.36 ± 0.04 µM
C[C@H](C(=O)NO)N1CC[C@@](C)(c2ccc(Cl)cc2)C1=O [compound 6, (R)-N-hydroxy-2-((S)-3-(4-chlorophenyl)-3-methyl-2-oxopyrrolidin-1-yl)propenamide]	0.034 ± 0.026	
Cc1ccc([C@]2(C)CCN([C@H](C)C(=O)NO)C2=O)cc1 [compound 7, (R)-N-hydroxy-2-((S)-3-(p-tolyl)-3-methyl-2-oxopyrrolidin-1-yl)propenamide]	0.5 ± 0.023	
